Reference: patent US11767313B2, “Compounds as nuclear transport modulators and uses thereof” (XWPHARMA LTD., priority 2018, dated 2023)
Read-outs that look alike come from different tables or passages of the source.

Experiments:
[1] = tested on: U87MG; assay: CellTiter-Glo cell proliferation assay, U87MG; type: cell-based, human; details: for IC50: Homo sapiens, U-87 MG
Procedure, shortened: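 Cells were seeded at 1,500–5,000 per well overnight, then exposed for 72 h to a 10-point 2- or 3-fold compound dilution series. Viability was read by CellTiter-Glo luminescence as % growth relative to DMSO (high) and medium-only (low) controls. IC50 came from concentration-response curve fitting.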

[2] = tested on: T98G; assay: CellTiter-Glo cell proliferation assay, T98G; type: cell-based; details: Homo sapiens, T98G
Experimental: (§1) CellTiter-Glo® Luminescent Cell Viability assay (with Promega CellTiter 96® Luminescent CellTiter-Glo® kit) was used to study the proliferation inhibition by test compounds. Compounds were resuspended in DMSO to make a 25 mM stock suspension. Cells of cancer cell lines or normal tissues were seeded in 96-well plates at 1,500 to 5,000 cells/well overnight. Compounds were 2- or 3-fold diluted serially to obtain 10 concentrations. Then, the drugs were added to the cell wells by Bravo (Agilent) and incubated for 72 hours. The cells were lysed by adding CellTiter-Glo® Reagent (per manufacturer's instructions) and subsequently, the luminescence was read using EnVision® (PerkinElmer).
(§2) The percent of growth was calculated as follows. DMSO-treated cells were employed as vehicle control (High control, HC) and culture medium alone was employed as background (Low control, EC). % growth=100×(Lum sample−Lum EC)/(Lum HC−Lum EC). The ICso was calculated by concentration-response curve fitting using Graphpad Prism.
(§3) Hematological cancer cell lines tested included OCI-AML3, MV-4-11, KG-1, Kasumi-1, K562, THP-1; solid cancer cell lines tested included U87MG, U251, T98G, LN229, A172, H460, H2009, A549; normal cell lines tested included HCN2 and 3T3-L1. […] However, they were not toxic to in vitro cultured normal cells.

[3] = tested on: LN-229; assay: CellTiter-Glo cell proliferation assay, LN-229; type: cell-based; details: Homo sapiens, LN-229
Experimental: as §1, §2, §3

[4] = tested on: U251; assay: CellTiter-Glo cell proliferation assay, U251; type: cell-based; details: Homo sapiens, U-251
Experimental: as §1, §2, §3

[5] = tested on: A549; assay: CellTiter-Glo cell proliferation assay, A549; type: cell-based; details: Homo sapiens, 72 hours, Table 1, read-out: Growth inhibition (IC50)
Experimental: as §1, §2, §3

[6] = tested on: H460; assay: CellTiter-Glo cell proliferation assay, H460; type: cell-based; details: Homo sapiens, NCI-H460, 72 hours, Table 1, read-out: Growth inhibition (IC50)
Experimental: as §1, §2, §3

[7] = tested on: HCN2; assay: CellTiter-Glo cell proliferation assay, HCN2 (normal brain); type: cell-based
Experimental: as §1, §2, §3

[8] = tested on: HCT116; assay: Cytotoxicity, cell proliferation assay, HCT116 colon cancer; type: cell-based; details: Table 8
Experimental: as §1, §2
(§4) The cytotoxicity of test compounds in brain (HCN2), colon cancer (HCT116) and normal colon cell (C8-B4) lines was determined using the cell proliferation assay as described in Example 19.

[9] = tested on: C8-B4; assay: Cytotoxicity, cell proliferation assay, C8-B4; type: cell-based; details: Table 8
Experimental: as §1, §2, §4

[10] = Pharmacokinetic profile summary; type: in vivo, mice or rats; details: for bioavailability / Kp at 1 h: oral; for bioavailability / half-life: mice or rats; for AUC / Cmax: po; for Kp at 1 h: brain/plasma, read-out: B/P ratio (Cmax time) 10 mpk
Experimental: Blood was collected from mice (n=3, or 5) to contribute to the total of 10 time points (pre-dose, 5 min, 15 min, 30 min, 1 hour, 2 hours, 4 hours, 8 hours, 12 hours and 24 hours). At the designated time points, animals were anaesthetized under isoflurane, and approximately 110 μL of blood per time point was collected via retro-orbital puncture into pre-cooled K2EDTA tubes. Blood samples were put on wet ice and centrifuged (2000 g, 5 min at 4° C.) to obtain plasma within 30 minutes of sample collection. All samples were stored frozen at approximately −80° C. until analysis. Prior to analysis, samples were mixed with internal standard in acetonitrile, vortexed, centrifuged, and supernatant was injected for analysis. Concentration of compounds in plasma was determined using LC-MS-MS instrumentation (API 4000, Triple Quadrupole LC/MS/MS Mass Spectrometer). AUC values were calculated using Phoenix Win Nonlin 6.3 software package, PO-Noncompartmental model 200 (extravascular input).
Following collection, brain tissue was rinsed with cold saline, dried on filter paper, weighed and snap-frozen by placing on dry ice. All samples were stored frozen at approximately −80° C. until analysis. At the time of analysis, brain tissue was homogenized (homogenizing solution PBS, pH 7.4), mixed with internal standard in acetonitrile, vortexed, centrifuged, and supernatant was injected for analysis. Concentration of compounds in plasma was determined using LC-MS-MS instrumentation (API 4000, Triple Quadrupole LC/MS/MS Mass Spectrometer). Plasma samples were treated with the identical method (except homogenization step) and the concentration of compound in each matrix was calculated based on generated standard curves.
The pharmacokinetic profile of test compounds in mice or rats was determined from several test compounds was determined using the methods described in Example 22.

[11] = target: XPO1 (Homo sapiens, UniProt O14980); assay: REV-GFP translocation assay in U2OS cells; type: cell-based; design: endogenous in cells; host or cells: U2OS cells stably expressing REV-GFP (clones from HD Biosciences); details: for IC50: Table 10
Chain of XPO1 (O14980 whole entry): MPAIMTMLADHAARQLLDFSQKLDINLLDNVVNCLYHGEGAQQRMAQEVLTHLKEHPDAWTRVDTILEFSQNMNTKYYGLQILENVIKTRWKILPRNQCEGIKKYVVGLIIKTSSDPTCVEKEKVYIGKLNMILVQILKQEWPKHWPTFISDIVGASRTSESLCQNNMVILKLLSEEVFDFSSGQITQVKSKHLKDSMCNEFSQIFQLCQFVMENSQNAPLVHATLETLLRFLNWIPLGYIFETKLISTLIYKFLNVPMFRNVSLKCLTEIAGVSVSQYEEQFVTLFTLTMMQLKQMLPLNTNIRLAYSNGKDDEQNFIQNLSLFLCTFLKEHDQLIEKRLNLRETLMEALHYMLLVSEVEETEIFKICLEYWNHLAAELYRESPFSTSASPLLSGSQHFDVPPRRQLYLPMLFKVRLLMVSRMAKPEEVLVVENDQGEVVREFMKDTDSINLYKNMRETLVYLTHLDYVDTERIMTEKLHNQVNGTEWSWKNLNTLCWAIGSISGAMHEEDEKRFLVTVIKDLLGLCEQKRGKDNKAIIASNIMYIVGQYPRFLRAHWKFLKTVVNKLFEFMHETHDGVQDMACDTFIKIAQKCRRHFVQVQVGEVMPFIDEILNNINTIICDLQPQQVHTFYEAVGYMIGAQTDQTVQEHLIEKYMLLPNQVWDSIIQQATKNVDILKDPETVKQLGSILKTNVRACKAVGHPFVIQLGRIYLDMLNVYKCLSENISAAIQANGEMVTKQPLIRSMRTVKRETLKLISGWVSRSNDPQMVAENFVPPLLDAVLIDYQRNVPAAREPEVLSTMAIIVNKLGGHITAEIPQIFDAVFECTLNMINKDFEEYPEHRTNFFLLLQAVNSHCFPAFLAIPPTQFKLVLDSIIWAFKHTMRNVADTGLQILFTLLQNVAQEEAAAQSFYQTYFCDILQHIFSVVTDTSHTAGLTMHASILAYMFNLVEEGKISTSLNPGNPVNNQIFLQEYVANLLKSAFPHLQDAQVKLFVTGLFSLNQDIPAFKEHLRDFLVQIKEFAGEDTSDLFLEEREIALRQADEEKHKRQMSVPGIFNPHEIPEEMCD
Experimental: LTD in China, and cells were cultured with growth medium. […] The highest Leptomycin B (LMB) concentration was set to 50 nM and serially diluted as the positive control, while the highest concentrations of other compounds were set to 10 μM. The cells treated with various drugs or DMSO, were incubated at 37° C. and 5% CO2 for 1 h. Then, cells were fixed with 4% formaldehyde for 15 min at room temperature. The cells were washed and stained with 100 μL Hoechst 33342 working solution for 10 min at room temperature in dark, after which the cell fluorescence was imaged with the High-Content Imaging System, ImageXpress® (Molecular Devices) using the 20× objective. The filters were set for Hoechst (350/461 nm) and GFP/FITC (488/509 nm) (wavelength for excitation and emission maxima). The % effect of REV nuclear translocation was calculated with the following formula: % effect=([…]- signals from testing compounds; ILMB-signals of 50 nM LMB group; ICTRL-signals of vehicle control group.

[12] = 72 h, U87MG, 72 hours, Table 1, read-out: Growth inhibition (IC50)
[13] = Table 9, first value column, read-out: U87MG IC50
[14] = Table 9, second value column, read-out: U87MG IC50
[15] = Table 11, read-out: Absolute IC50 (μM) T98G
[16] = Table 11, read-out: Absolute IC50 (μM) LN-229
[17] = Table 11, read-out: Absolute IC50 (μM) U251
[18] = 72 h, HCN2 normal cell line, 72 hours, Table 1, read-out: Growth inhibition (IC50)
[19] = 10 mg/kg, plasma, 10 mpk, read-out: Cmax (ng/ml) plasma/10 mpk
[20] = REV-EGFP U2OS cells, 1 h, Table 2, read-out: Rev-GFP/EC50
[21] = first (or only) value of the cell
[22] = Table 13, read-out: Rev-GFP assay/μM
[23] = 72 hours, Table 1, read-out: Growth inhibition (IC50)

Row | Structure (SMILES) | IC50 [1, 12] [nM] | IC50 [1, 13] [nM] | IC50 [1, 14] [nM] | IC50 [2, 15] [µM] | IC50 [3, 16] [µM] | IC50 [4, 17] [µM] | IC50 [7, 18] [nM] | IC50 ([7]; Table 9, read-out: HCN2 IC50) [nM] | bioavailability ([10]; plasma) [%] | AUC ([10]; plasma, 10 mg/kg, 10 mpk) [ng·h/mL] | half-life ([10]; plasma) [h] | Cmax [10, 19] [ng/mL] | Kp at 1 h ([10]; rat, 10 mg/kg) | EC50 [11, 20] [µM] | IC50 [11, 21] [nM] | IC50 ([11]; second value of the cell) [nM] | EC50 [11, 22] [µM] | other results
1 | O=C(/C=C\n1cnc(-c2cc(C(F)(F)F)cc(S(F)(F)(F)(F)F)c2)n1)NNc1cnccn1 [Compound I, (Z)-3-(3-(3-(pentafluorosulfanyl)-5-(trifluoromethyl)phenyl)-1H-1,2,4-triazol-1-yl)-N′-(pyrazin-2-yl)acrylohydrazide] | 592 | 384 | 798 | 1.7 | 0.6 | 1.2 | 25800 | 25800 | 98 | 10000 | 4.7 | 2550 | 0.71 | 0.012 | 16.3 | 7.7 | 0.012 | IC50 ([1]; Table 6, read-out: U87MG IC50): 226 nM; IC50 [5]: 1490 nM; IC50 [6]: 294 nM; HCN2 Max % inh ([7]; Table 8): 22%; IC50 ([7]; Table 8, read-out: HCN2 IC50): > 50000 nM; IC50 ([8]; Homo sapiens, HCT-116): 5960 nM; HCT116 Max % inh [8]: 88%; IC50 ([9]; C8-B4): 4300 nM; C8-B4 Max % inh [9]: 91%; Cmax ([10]; rat, 10 mg/kg, 10 mpk, first number of Plasma/brain pair, read-out: Cmax/(ng/mL) Plasma): 1890 ng/mL; Cmax ([10]; rat, 10 mg/kg, 10 mpk, second number of Plasma/brain pair, read-out: Cmax/(ng/mL) brain): 1300 ng/mL
2 | CC(C)(C)C(=O)NNC(=O)/C=C\n1cnc(-c2cc(C(F)(F)F)cc(S(F)(F)(F)(F)F)c2)n1 [Compound III, (Z)-3-(3-(3-(Pentafluorosulfanyl)-5-(trifluoromethyl)phenyl)-1H-1,2,4-triazol-1-yl)-N′-pivaloylacrylohydrazide] | 1740 | 1120 | 2360 | 6.2 | 1.8 | 3.8 | > 50000 | > 50000 | 82 | 13900 | 5.2 | 1600 | 0.95 | 0.211 | 298 | 125 | 0.21 | IC50 ([1]; U87MG, Table 12, read-out: Relative IC50): 200 nM; Max % Inhibition ([1]; U87MG, Table 12): 46.3%; Bottom ([1]; U87MG, curve fit, Table 12): −4.2; Hill Slope ([1]; U87MG, curve fit, Table 12): 3.2; Top ([1]; U87MG, curve fit, Table 12): 40.2; IC50 [2, 23]: 6.25 µM; IC50 [3, 23]: 1.8 µM; IC50 ([4]; U251, 72 hours, Table 1, read-out: Growth inhibition (IC50)): 3.77 µM; Cmax ([10]; 3 mg/kg, 3 mpk, first number of Plasma/brain pair, read-out: Cmax/(ng/mL) Plasma): 1250 ng/mL; Cmax ([10]; 3 mg/kg, 3 mpk, second number of Plasma/brain pair, read-out: Cmax/(ng/mL) brain): 1190 ng/mL; cell viability in REV-GFP assay ([11]; 1 h, all concentrations tested): no decrease in cell viability; EC90 ([11]; U2OS, concentration stated as EC90 in washout study, read-out: EC90 (REV-EGFP translocation)): 400 nM; EC50 ([11]; concentration stated as EC50 in washout study, read-out: EC50 (REV-EGFP translocation)): 0.12 µM
